Source: patent US20250049922A1, “PHARMACEUTICAL COMPOSITION COMPRISING P-BORONOPHENYLALANINE” (priority 2021, published 2025)

Assay: Solubilization of BPA in aqueous solutions, visual inspection of dissolution
Assay type: physicochemical
Conditions: RT, after 2 hours
Experimental: BPA (L-p-boronophenylalanine, Katchem, Praha, Czech Republic) was weighed to a set of test tubes, 15 mg each (72 μmol). At room temperature (RT), 0.5 ml each of various aqueous solutions as listed below, were added into parallel test tubes and mixed vigorously. After 2 hours, the results of visual inspection of BPA dissolution and pH were as follows: […]

SMILES: N[C@@H](Cc1ccc(B(O)O)cc1)C(=O)O [BPA, L-p-boronophenylalanine]
- visual inspection of BPA dissolution (15 mg BPA in 0.5 ml 0.12 M L-histidine (neutral pH)): no dissolution
- visual inspection of BPA dissolution (15 mg BPA in 0.5 ml 0.5 M L-arginine (pH over 11)): partial dissolution
- visual inspection of BPA dissolution (15 mg BPA in 0.5 ml 0.5 M L-serine (neutral pH)): no dissolution
- visual inspection of BPA dissolution (15 mg BPA in 0.5 ml 0.5 M NaOH): complete dissolution
- visual inspection of BPA dissolution (15 mg BPA in 0.5 ml 0.5 M Tris (Trizma base, pH over 10)): complete dissolution
- visual inspection of BPA dissolution (15 mg BPA in 0.5 ml 0.5 M Tris-HCl (pH 8)): partial dissolution
- visual inspection of BPA dissolution (15 mg BPA in 0.5 ml 0.5 M propylene glycol): no dissolution
- visual inspection of BPA dissolution (15 mg BPA in 0.5 ml 0.5 M sodium-potassium tartrate (neutral pH)): partial dissolution
- visual inspection of BPA dissolution (15 mg BPA in 0.5 ml 96% ethanol (v/v)): no dissolution
- visual inspection of BPA dissolution (15 mg BPA in 0.5 ml deionized water): no dissolution
- visual inspection of BPA dissolution (15 mg BPA, 0.25 ml 0.5 M NaOH followed by 0.5 ml 0.5 M L-serine): complete dissolution
